Values of other authors, collected in patent US10058529B2, “Nutraceutical composition for PDE4 inhibition, enhanced dopamine metabolism and long term potentiation” (priority 2013, dated 2018).

Columns and labels:
PDE4 = conditions: reference 38
[1] = low doses
[2] = co-administered piperine
[3] = system: phosphodiesterase enzymes (PDE 1 through 5)
acetylcholine = conditions: in vivo

Question: Which PDE4 inhibition (PDE4) does the source give for `COc1ccc([C@@]23C=CC(=O)C[C@@H]2N(C)CC3)cc1OC` [mesembrenone] here?
Answer: significantly inhibit

Question: With `COc1ccc(C2CNC(=O)C2)cc1OC1CCCC1` (centres unmarked) [rolipram] as the compound, how does the side effect [1] read?
Answer: emesis (vomiting) at low doses

Question: With `O=C(/C=C/C=C/c1ccc2c(c1)OCO2)N1CCCCC1` [Piperine, piperine] as the compound, how does the bioavailability of resveratrol [2] read?
Answer: enhance the bioavailability

Question: With `O=c1cc(-c2ccc(O)c(O)c2)oc2cc(O)cc(O)c12` [Luteolin, luteolin] as the compound, how does the “inhibition of phosphodiesterase enzymes (PDE 1 through 5)” value [3] read?
Answer: can inhibit

Question: With `CC(=O)O[C@H](CC(=O)[O-])C[N+](C)(C)C` [Acetyl-L-carnitine, acetyl-L-carnitine] as the compound, how does the “levels of acetylcholine in the brain” value (acetylcholine) read?
Answer: increase
